Reference: paper PMC6543040, “Structural and biochemical characterization of Rv0187, an O-methyltransferase from Mycobacterium tuberculosis” (Scientific Reports, 2019)

Columns and labels:
Rv0187 [1] = molecular target: T1, Rv0187 (Mycobacterium tuberculosis, UniProt O07431); assay type: biochemical; design: pLATE31-Rv0187 (C-terminal His6-tag)
COc1cc(C(=O)O)cc(O)c1O = assay: purified protein; conditions: SAM; Mg2+
O=C(O)c1ccc(O)c(O)c1 = assay: purified protein; conditions: SAM; Mg2+
[2] = system: O=C(O)/C=C/c1ccc(O)c(O)c1; assay: purified protein; conditions: SAM; Mg2+
Rv0187 [3] = molecular target: T1, Rv0187; assay: biochemical; assay type: binding
Rv0187 [4] = molecular target: T1, Rv0187; assay: co-crystal structure, […] Å; assay type: binding; design: C-terminal His6-tag after a TEV cleavage site (pLATE31-Rv0187-TEV)
SEC = molecular target: the molecule itself; assay: SEC

T1 sequence (O07431 whole entry): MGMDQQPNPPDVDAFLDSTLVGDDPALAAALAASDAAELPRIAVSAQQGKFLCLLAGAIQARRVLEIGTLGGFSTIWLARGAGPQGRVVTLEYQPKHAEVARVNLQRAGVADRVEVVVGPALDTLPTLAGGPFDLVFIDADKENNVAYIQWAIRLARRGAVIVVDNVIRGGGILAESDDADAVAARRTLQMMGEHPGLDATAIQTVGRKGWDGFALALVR

O=C(O)c1cc(O)c(O)c(O)c1 [GA, gallic acid]
in vitro methyltransfer assay, HPLC/LC-MS (Rv0187 [1]): PCA, 5OMeBA, and GA were more readily modified at the para-hydroxyl group

O=Cc1ccc(O)c(O)c1 [DHA, 3,4-dihydroxy-benzaldehyde]
in vitro methyltransfer assay, HPLC/LC-MS (Rv0187 [1]): DHA, dopamine and CA were preferentially methylated at the meta position

Rv0187 (Mycobacterium tuberculosis H37Rv)
Km (COc1cc(C(=O)O)cc(O)c1O): 30 ± 4 µM
Km (O=C(O)c1ccc(O)c(O)c1): 150 ± 20 µM
Km [2]: 490 ± 170 µM

NCCc1ccc(O)c(O)c1 [dopamine]
in vitro methyltransfer assay, HPLC/LC-MS (Rv0187 [1]): DHA, dopamine and CA were preferentially methylated at the meta position

O=c1[nH]c(=O)n([C@@H]2O[C@H](CO)[C@@H](O)[C@H]2O)cc1O [ho^5U, 5-hydroxyuridine]
in vitro methyltransfer assay, HPLC/LC-MS (Rv0187 [1]): methylation of 5-hydroxyuridine (ho^5U) yielded a single product, 5-methoxyuridine (mo^5U)

C[S+](CC[C@H](N)C(=O)[O-])C[C@H]1O[C@@H](n2cnc3c(N)ncnc32)[C@H](O)[C@@H]1O (stereo partly drawn) [SAM, S-adenosyl-l-methionine]
Kd (Rv0187 [3]): 9.3 ± 0.7 µM

Nc1ncnc2c1ncn2[C@@H]1O[C@H](CSCC[C@H](N)C(=O)O)[C@@H](O)[C@H]1O [SAH, S-adenosyl-l-homocysteine]
co-crystal structure, 1.64 Å (Rv0187 [4]): each subunit exhibits the unambiguous presence of a divalent metal ion and SAH

O=c1c(O)c(-c2ccc(O)c(O)c2)oc2cc(O)cc(O)c12 [quercetin]
in vitro methyltransfer assay, HPLC/LC-MS (Rv0187 [1]): Rv0187 was able to methylate flavonoids (luteolin and quercetin), although the precise methylation site could not be assigned

B1: Rv0187 fused with a C-terminal His6-tag (pLATE31-Rv0187 construct) (enzyme)
chain: MDQQPNPPDVDAFLDSTLVGDDPALAAALAASDAAELPRIAVSAQQGKFLCLLAGAIQARRVLEIGTLGGFSTIWLARGAGPQGRVVTLEYQPKHAEVARVNLQRAGVADRVEVVVGPALDTLPTLAGGPFDLVFIDADKENNVAYIQWAIRLARRGAVIVVDNVIRGGGILAESDDADAVAARRTLQMMGEHPGLDATAIQTVGRKGWDGFALALVR
notes: also called MTB Rv0187; C-terminal His6-tagged construct; not shown: His6, C-terminal, kept
stoichiometry N (SEC): 2
